For one assay, the system named is P. aeruginosa. Nature of the assay: Modified disk diffusion, inhibition zone. It counts as cell-based, Pseudomonas aeruginosa. The settings on record: P. aeruginosa (G−). As to the method:
(§1) The antimicrobial effects of the currently synthesized Schiff bases (6a-l) were tested against two Gram-positive bacteria (S. aureus and B. subtilis), two Gram-negative bacteria (E. coli and P. aeruginosa), and two strains of fungus (A. flavus and C. albicans). The modified disk diffusion method ([Alkhaldi et al., 2019]; [Manso et al., 2021]) was used to determine the inhibition zones (IZ, mm/mL) and the minimal inhibitory concentration (MIC, nM). Ciprofloxacin and Fluconazole was used as positive controls. Tables 1–3 display the findings. […]
(§2) incubated at 35-37 °C for 24-48 hours and yeast as Candida albicans (ATCC 7102) incubated at 30 °C for 24-48 hours and, then the diameters of the inhibition zones were measured in millimeters. Standard discs of ciprofloxacin (Antibacterial agent), Fluconazole (Antifungal agent) served as positive controls for antimicrobial activity but filter discs impregnated with 10 µl of solvent (distilled water, chloroform, DMSO) were used as a negative control. Blank paper disks (Schleicher & Schuell, Spain) with a diameter of 8.0 mm were impregnated 10µ of tested concentration of the stock solutions. When a filter paper disc impregnated with a tested chemical is placed on agar the chemical will diffuse from the disc into the agar. This diffusion will place the chemical in the agar only around the disc. […]
On the technique in general: A growth-free zone around the sample is the usual read-out of agar diffusion tests.

Assay [1] relates to A. flavus and C. albicans. Briefly: Disk diffusion inhibition zone, both fungi. It counts as cell-based. The settings on record: against A. flavus and C. albicans. As to the method: The antimicrobial effects of the currently synthesized Schiff bases (6a-l) were tested against two Gram-positive bacteria (S. aureus and B. subtilis), two Gram-negative bacteria (E. coli and P. aeruginosa), and two strains of fungus (A. flavus and C. albicans). The modified disk diffusion method ([Alkhaldi et al., 2019]; [Manso et al., 2021]) was used to determine the inhibition zones (IZ, mm/mL) and the minimal inhibitory concentration (MIC, nM). Ciprofloxacin and Fluconazole was used as positive controls. Tables 1–3 display the findings.

In another assay the test system is S. aureus. Nature of the assay: Modified disk diffusion, inhibition zone. It counts as cell-based, Staphylococcus aureus. Conditions: S. aureus (G+). The protocol:
as §1, §2

For the next assay, the system named is C. albicans. Briefly: Antifungal assay (MIC/MFC), twofold serial dilution.
For a further assay, the system named is A. flavus. The description is as above. The settings on record: for MIC: A. flavus.
For a further assay, the system named is E. coli. Briefly: Modified disk diffusion, inhibition zone. Format: cell-based, Escherichia coli. Conditions: E. coli (G−). As to the method: as §1, §2
For the next assay, the system named is B. subtilis. Nature of the assay: Modified disk diffusion, inhibition zone. It counts as cell-based, Bacillus subtilis. Conditions: B. subtilis (G+). The protocol:
as §1, §2

Each structure is given as a SMILES string. Values after ≈ are worked out from the molar mass of the structure shown.

We go through 1 compound from paper PMC11590026, “Synthesis, enzyme inhibition, and docking studies of new schiff bases of disalicylic acid methylene-based derivatives as dual-target antibacterial agents” (Frontiers in Chemistry, 2024).

As a reminder, the MIC is the least concentration at which growth counts as inhibited. A high value points to weaker potency. The term MFC denotes the lowest tested concentration that kills the fungus rather than only halting it. Low values mean more potent killing, high ones less potent killing. Turning to `OC(Cn1cncn1)(Cn1cncn1)c1ccc(F)cc1F` [Fluconazole, reference compound], the “Inhibition zone (IZ) diameter” value in the assay on P. aeruginosa, in the assay with S. aureus, in the assay with E. coli and with B. subtilis was “NA (NA: no activity (8 mm))” each time. The compound further yielded an IZ values in assay [1] of 40 mm. For the same compound, the minimal inhibitory concentration (MIC) in the assay with C. albicans (C. albicans) turned out to be 17.50 ± 1 µM (≈ 5.36 µg/mL); in the assay on C. albicans (Candida albicans), 17.5 µM (≈ 5.36 µg/mL); in the assay with A. flavus, 11.50 ± 1 µM (≈ 3.52 µg/mL); with A. flavus (Aspergillus flavus) it was 11.5 µM (≈ 3.52 µg/mL). The MFC against C. albicans (Candida albicans) is 35 ± 2 µM (≈ 10.7 µg/mL); in the assay with A. flavus (Aspergillus flavus), 22.8 ± 1 µM (≈ 6.98 µg/mL).
